The structures appear in SMILES notation.

This assay deals with HBV cccDNA (HBeAg level) in HepDES19 cells. Nature of the assay: Engineered HepDES19 primary screen assay (HBeAg as surrogate marker for cccDNA). Conditions: Hepatitis B virus, HepDES19, 120 h. The format is cell-based. The source says: The assay was employed to screen for novel cccDNA inhibitors. HepDES19 is a cccDNA-producing cell line. In this cell line, HBeAg in the cell culture supernatant as surrogate marker, as HBeAg production depends on cccDNA level and activity. HepDES19 is an engineered cell line which contains a 1.1 unit length HBV genome, and pgRNA transcription from the transgene is controlled by Tetracycline (Tet). In the absence of Tet, pgRNA transcription will be induced, but HBV e antigen (HBeAg) could not be produced from this pgRNA due to very short leader sequence before the HBeAg start codon and the start codon is disrupted. Only after cccDNA is formed, the missing leader sequence and start codon mutation would be restored from the 3′-terminal redundancy of pgRNA, and then HBeAg could be synthesized. Therefore, HBeAg could be used as a surrogate marker for cccDNA (Zhou, T. et al., Antiviral Res. (2006), 72(2), 116-124; Guo, H. et al., J. Virol. (2007), 81(22), 12472-12484).
HepDES19 cells were seeded at 2×10^6 cells per T150 flask and cultured with the culture medium (Dulbecco's Modified Eagle Medium: Nutrient Mixture F-12 [DMEM-F12, Gibco Cat. 11320-82], 10% Fetal Bovine Serum [FBS, Clontech Cat. 631101], 0.1 mM Non-Essential Amino Acids Solution [NEAA, Gibco Cat. 11140-050], 50 μg/mL Penicillin-Streptomycin [PS, Invitrogen Cat. 15140-163], 500 μg/mL Geneticin [G418, Invitrogen Cat. 10131-027]) containing 3 μg/mL Tet (Sigma, Cat. 87128) for 5 days. Cells were then seeded at 4×10^6 cells per T150 in the same culture medium as described above in the absence of Tet for 8 days. Cells were then harvested and frozen at density of 2×10^6 cells per mL. For compound testing, the frozen cells were thawed and seeded into 96-well plates at a density of 6×10^4 cells per well. At 24 hours after seeding, half log serial dilutions of compounds made with Dimethyl sulfoxide (DMSO, Sigma, Cat. D2650) were further diluted with the same culture medium as described above before they were added to the cells to reach desired final compound concentrations and 1% DMSO concentration. Plates were then incubated at 37° C. for another 5 days before measurement of HBeAg level and cell viability. Intracellular HBeAg level were measured with enzyme-linked immunosorbent assay (ELISA) kit (Shanghai Kehua Diagnostic Medical Products Co., Ltd). Cell viability was assessed using Cell Counting Kit-8 (Donjindo, Cat. CK04-20). IC50 values were derived from the dose-response curve using 4 parameter logistic curve fit method.
The compounds of the present invention were tested for their capacity to inhibit extracellular HBeAg level as described herein.
Consider `COc1cc(Br)cnc1NC(=O)c1cc(=O)c2cccc(Cl)c2o1` [Example 32, N-(5-bromo-3-methoxypyridin-2-yl)-8-chloro-4-oxo-chromene-2-carboxamide], for which the IC50 is 33.7 µM.

`O=C(O)COCCOc1cc(Cl)ccc1NC(=O)c1cc(=O)c2cc(Cl)cc(Cl)c2o1` [Example 22, 2-(2-(5-chloro-2-(6,8-dichloro-4-oxo-chromene-2-carboxamido)phenoxy)ethoxy)acetic Acid] came in with a concentration for half-maximal inhibition (IC50) of 11.9 µM.

As for `O=C(c1cc(=O)c2cccc(Cl)c2o1)N1CCCc2ccc([N+](=O)[O-])cc21` [Example 33, 8-chloro-2-(7-nitro-3,4-dihydro-2H-quinoline-1-carbonyl)chromen-4-one], the IC50 came out at 35.3 µM.

Molecule `COc1ccc(CN(C)c2cc(=O)c3cccc(Cl)c3o2)cc1` [Example 48, 8-chloro-2-((4-methoxybenzyl)(methyl)amino)-chromen-4-one] displayed an IC50 of 12.1 µM.

With `Cc1cc(Cl)ccc1NC(=O)c1cc(=O)c2cccc(Cl)c2o1` [Example 8, 8-chloro-N-(4-chloro-2-methylphenyl)-4-oxo-chromene-2-carboxamide], the IC50 was found to be 0.32 µM.

`O=C(O)C1CC(OCCOc2ccc3c(c2)CN(c2cc(=O)c4cccc(Cl)c4o2)C3=O)C1` (stereo not shown) [Example 64, 3-(2-((2-(8-chloro-4-oxo-chromen-2-yl)-1-oxoisoindolin-5-yl)oxy)ethoxy)cyclobutanecarboxylic Acid]: the IC50 came out at 36.6 µM.

For `Cc1cc(O)ccc1NC(=O)c1cc(=O)c2cccc(Cl)c2o1` [Example 30, 8-chloro-N-(4-hydroxy-2-methylphenyl)-4-oxo-chromene-2-carboxamide], the IC50 came out at 25.9 µM.

Molecule `O=C(O)C1CC(OCCOc2ccc(C3CCN(c4cc(=O)c5cc(F)cc(Cl)c5o4)CC3)cc2)C1` (stereo not shown) [Example 50, 3-(2-(4-(1-(8-chloro-6-fluoro-4-oxo-chromen-2-yl)piperidin-4-yl)phenoxy)ethoxy)cyclobutane-1-carboxylic Acid] registered an IC50 of 14.1 µM.

Turning to `O=c1cc(N2CC3(CC(O)C3)C2)oc2c(Cl)cccc12` [Example 47, 8-chloro-2-(6-hydroxy-2-azaspiro[3.3]heptan-2-yl)chromen-4-one], the IC50 is 10.7 µM.

With `O=C(O)CCCOc1cc(Cl)ccc1NC(=O)c1cc(=O)c2cc(Cl)cc(Cl)c2o1` [Example 11, 4-(5-chloro-2-(6,8-dichloro-4-oxo-chromene-2-carboxamido)phenoxy)butanoic Acid], the 50% inhibitory concentration (IC50) came out at 3.12 µM.

Turning to `O=C(O)COc1cc(Cl)ccc1NC(=O)c1cc(=O)c2cccc(Cl)c2o1` [Example 20, 2-(5-chloro-2-(8-chloro-4-oxo-chromene-2-carboxamido)phenoxy)acetic Acid], the concentration for half-maximal inhibition (IC50) came out at 50 µM.

As for `COC(=O)c1ccc(CNC(=O)c2cc(=O)c3cccc(Cl)c3o2)cc1` [Example 26, Methyl 4-((8-chloro-4-oxo-chromene-2-carboxamido)methyl)benzoate], the midpoint of inhibition, the IC50, lay at 20.6 µM.

`O=c1c(I)c(N2CCC(O)CC2)oc2c(Cl)cccc12` [Example 61, 8-chloro-2-(4-hydroxypiperidin-1-yl)-3-iodo-chromen-4-one] came in with an IC50 of 30.9 µM.

For `O=C(O)C1CC(OCCOc2ccc(CNc3cc(=O)c4cccc(Cl)c4o3)cc2)C1` (stereo not shown) [Example 60, 3-(2-(4-(((8-chloro-4-oxo-chromen-2-yl)amino)methyl)phenoxy)ethoxy)cyclobutanecarboxylic Acid], the half-inhibitory concentration (IC50) was determined as 30.8 µM.

In turn, `O=C(O)C1CC(OCCOc2ccc3c(c2)CCN(c2cc(=O)c4cccc(Cl)c4o2)C3=O)C1` (stereo not shown) [Example 58, 3-(2-((2-(8-chloro-4-oxo-chromen-2-yl)-1-oxo-1,2,3,4-tetrahydroisoquinolin-6-yl)oxy)ethoxy)cyclobutanecarboxylic Acid] showed a half-inhibitory concentration (IC50) of 23.4 µM.

Turning to `COc1ccc2c(c1)CCN(c1cc(=O)c3cccc(Cl)c3o1)C2=O` [Example 44, 2-(8-chloro-4-oxo-chromen-2-yl)-6-methoxy-3,4-dihydroisoquinolin-1-one], the 50% inhibitory concentration (IC50) was determined as 5.44 µM.

`COc1ccc2c(c1)C(=O)N(c1cc(=O)c3cccc(Cl)c3o1)C2` [Example 55, 2-(8-chloro-4-oxo-chromen-2-yl)-6-methoxyisoindolin-1-one]: 16.7 µM corresponded to half-maximal inhibition (IC50).

For the molecule `COC(=O)C1CC(OCCOc2ccc3c(c2)C(=O)N(c2cc(=O)c4cccc(Cl)c4o2)C3)C1` (stereo not shown) [Example 54, Methyl 3-(2-((2-(8-chloro-4-oxo-chromen-2-yl)-3-oxoisoindolin-5-yl)oxy)ethoxy)cyclobutanecarboxylate], the half-maximal inhibitory concentration (IC50) turned out to be 16 µM.

Molecule `O=c1cc(N2CCC(c3ccccc3)CC2)oc2c(Cl)cc(F)cc12` [Example 49, 8-chloro-6-fluoro-2-(4-phenylpiperidin-1-yl)-chromen-4-one] gave a concentration for half-maximal inhibition (IC50) of 12.4 µM.

For `O=C(c1cc(=O)c2cccc(Cl)c2o1)N1Cc2cccc(Br)c2C1` [Example 31, 2-(4-bromoisoindoline-2-carbonyl)-8-chloro-chromen-4-one], half-maximal inhibition (IC50) required 26.8 µM.

As for `COC(=O)c1cccc(COC2CC3CCC(C2)N3c2cc(=O)c3cccc(Cl)c3o2)c1` (stereo not shown) [Example 41, Methyl 3-(((8-(8-chloro-4-oxo-chromen-2-yl)-8-azabicyclo[3.2.1]octan-3-yl)oxy)methyl)benzoate], the half-inhibitory concentration (IC50) turned out to be 3.99 µM.

In the case of `COC(=O)c1ccc(C)c(NC(=O)c2cc(=O)c3cccc(Cl)c3o2)c1` [Example 21, Methyl 3-(8-chloro-4-oxo-chromene-2-carboxamido)-4-methylbenzoate], it took 11 µM to reach half-maximal inhibition (IC50).

On to `COc1ccc(CNc2cc(=O)c3cccc(Cl)c3o2)cc1` [Example 52, 8-chloro-2-((4-methoxybenzyl)amino)-chromen-4-one], for which 15 µM corresponded to half-maximal inhibition (IC50).

`O=C(c1cc(=O)c2cccc(Cl)c2o1)N1CCc2cc(Br)ccc2C1` [Example 17, 2-(6-bromo-1,2,3,4-tetrahydroisoquinoline-2-carbonyl)-8-chloro-chromen-4-one] had a half-maximal inhibitory concentration (IC50) of 10.8 µM.

For the molecule `O=C(c1cc(=O)c2cccc(Cl)c2o1)N1CCc2cccc(Cl)c2C1` [Example 28, 8-chloro-2-(8-chloro-3,4-dihydro-1H-isoquinoline-2-carbonyl)chromen-4-one], half-maximal inhibition (IC50) was put at 24.3 µM.

Take `O=C(O)COCCOc1cc(Cl)ccc1NC(=O)c1cc(=O)c2cccc(Cl)c2o1` [Example 24, 2-(2-(5-chloro-2-(8-chloro-4-oxo-chromene-2-carboxamido)phenoxy)ethoxy)acetic Acid]: it took 13.9 µM to reach half-maximal inhibition (IC50).

For `COC(=O)c1cccc(C(=O)N2CC3(C2)CN(c2cc(=O)c4cccc(Cl)c4o2)C3)c1` [Example 63, Methyl 3-[6-(8-chloro-4-oxo-chromen-2-yl)-2,6-diazaspiro[3.3]heptane-2-carbonyl]benzoate], 31.7 µM corresponded to half-maximal inhibition (IC50).

`COC(=O)c1cc(Cl)ccc1NC(=O)c1cc(=O)c2cccc(Cl)c2o1` [Example 25, Methyl 5-chloro-2-(8-chloro-4-oxo-chromene-2-carboxamido)benzoate] registered an IC50 of 16.2 µM.

In turn, `CCOC(=O)c1nnc(NC(=O)c2cc(=O)c3cccc(Cl)c3o2)s1` [Example 35, Ethyl 5-(8-chloro-4-oxo-chromene-2-carboxamido)-1,3,4-thiadiazole-2-carboxylate] displayed an IC50 of 44.6 µM.

As to `COC(=O)c1ccc(NC(=O)c2cc(=O)c3cccc(Cl)c3o2)c(C)c1` [Example 27, Methyl 4-(8-chloro-4-oxo-chromene-2-carboxamido)-3-methylbenzoate], the IC50 is 23.4 µM.

Molecule `COc1ccc(CNc2oc3c(Cl)cccc3c(=O)c2I)cc1` [Example 42, 8-chloro-3-iodo-2-((4-methoxybenzyl)amino)-chromen-4-one] had a 50% inhibitory concentration (IC50) of 4.34 µM.

As to `CC1c2ccc(O)cc2CCN1c1cc(=O)c2cccc(Cl)c2o1` (stereo not shown) [Example 57, 8-chloro-2-(6-hydroxy-1-methyl-3,4-dihydro-1H-isoquinolin-2-yl)chromen-4-one], half-maximal inhibition (IC50) was put at 20 µM.

Take `O=c1cc(N2CCN(c3ccccc3)CC2)oc2c(Cl)cc(F)cc12` [Example 45, 8-chloro-6-fluoro-2-(4-phenylpiperazin-1-yl)-chromen-4-one]: the midpoint of inhibition, the IC50, lay at 8.58 µM.

Turning to `CN(Cc1ccc(OCCOC2CC(C(=O)O)C2)cc1)c1cc(=O)c2cccc(Cl)c2o1` (stereo not shown) [Example 56, 3-(2-(4-(((8-chloro-4-oxo-chromen-2-yl)(methyl)amino)methyl)phenoxy)ethoxy)cyclobutanecarboxylic acid], the concentration for half-maximal inhibition (IC50) is 19.6 µM.

As a reminder, the IC50 is the point on the concentration scale where inhibition reaches its midpoint. High values mean weaker potency, low ones greater potency.

Values taken from US11993591B2, “Chromen-4-one derivatives for the treatment and prophylaxis of hepatitis B virus disease” (Hoffmann-La Roche Inc., priority 2018, dated 2024).
